Consider 28 compounds from US10918642B2, “N-(substituted-phenyl)-sulfonamide derivatives as kinase inhibitors” (Nerviano Medical Sciences S.R.L., priority 2016, dated 2021).

Molecules are shown by their SMILES.

PERK recombinant enzyme (cytoplasmic domain corresponding to residues 540-1115), sequence (Q9NZJ5 540-1115): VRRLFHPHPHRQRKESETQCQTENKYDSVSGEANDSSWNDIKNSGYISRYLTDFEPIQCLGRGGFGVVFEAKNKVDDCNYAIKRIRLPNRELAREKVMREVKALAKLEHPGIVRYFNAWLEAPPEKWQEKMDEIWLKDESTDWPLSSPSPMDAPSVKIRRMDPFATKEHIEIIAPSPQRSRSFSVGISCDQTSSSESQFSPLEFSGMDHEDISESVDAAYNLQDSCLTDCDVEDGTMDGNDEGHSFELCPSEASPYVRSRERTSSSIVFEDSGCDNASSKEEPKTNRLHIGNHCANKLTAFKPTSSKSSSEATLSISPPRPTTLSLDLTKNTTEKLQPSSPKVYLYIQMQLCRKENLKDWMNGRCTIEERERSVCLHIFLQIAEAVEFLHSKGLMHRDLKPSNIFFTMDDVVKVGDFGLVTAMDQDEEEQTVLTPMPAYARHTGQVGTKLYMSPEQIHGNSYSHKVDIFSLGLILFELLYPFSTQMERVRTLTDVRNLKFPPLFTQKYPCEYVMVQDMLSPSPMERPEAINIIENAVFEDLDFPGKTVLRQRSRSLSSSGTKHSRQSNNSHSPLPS

In this assay the target is PERK recombinant enzyme (cytoplasmic domain corresponding to residues 540-1115) (Homo sapiens (Human), UniProt Q9NZJ5). As to the kind of experiment: PERK enzyme assay, Method 1: ADP-Glo Kinase Assay (quantification of ADP formed). As to conditions: 52 microM ATP, 8 nM PERK, 300 microM eIF2alpha peptide substrate, 60 minutes at room temperature. It counts as biochemical. How it is done:
The biochemical activity of compounds was determined by incubation with PERK recombinant enzyme (cytoplasmic domain corresponding to residues 540-1115) and elF2alpha peptide substrate (Aminoacid sequence: LLSELSRRRIRSINK—SEQ ID Nr: 1; purchased from American Peptide Company, product #341923). This was followed by:
Method 1: Quantification of the ADP Tormed from the Kinase Reaction by ADP-Glo™ Kinase Assay (Promega Cat. 9102). Utra Pure ATP was Included into ADP-Glo™ Kinase Assay kit.
Compounds were 3-fold serially diluted in order to obtain from 3.333 to 0.000169 microM final concentration, then incubated for 60 minutes at room temperature in the presence of ATP, substrate and enzyme in a final volume of 15 microL of kinase buffer in 384-well plates (Perkin Elmer cat. #6007290).
The final concentration of the different reagents is 52 microM ATP, 8 nM PERK, 300 microM substrate, 50 mM Hepes pH 7.5, 3 mM MgCl2, 1 mM DTT, 3 microM Na3VO4, 0.2 mg/ml BSA, 1% DMSO.
After 60 minutes, an equal volume (15 microL) of ADP-Glo™ Reagent was added to each well to terminate the kinase reaction and deplete the remaining ATP. After 40 minutes, 30 microL of Kinase Detection Reagent is added, which simultaneously converts ADP to ATP and allows the newly synthesized ATP to be measured using a coupled luciferase/luciferin reaction. After further 40 minutes luminescence was read by ViewLux Instrument (Perkin Elmer). The data are analyzed by GraphPad Prism software which provides sigmoidal fittings of the curves for IC50 determination using a 4 parameter logistic equation: y=bottom+(top−bottom)/(1+10^((log IC50−x)*slope))
where x is the logarithm of the inhibitor concentration, y is the response; y starts at bottom and goes to top with a sigmoid shape.
Background: ADP-Glo turns the ADP formed in a reaction into a luminescent signal.
Consider `COc1ccc(S(=O)(=O)Nc2cccc(-c3cn(C)c4ncnc(N)c34)c2F)cc1Cl` [cmpd 1, N-[3-(4-Amino-7-methyl-7H-pyrrolo[2,3-d]pyrimidin-5-yl)-2-fluoro-phenyl]-3-chloro-4-methoxy-benzenesulfonamide], for which the pIC50 entry is listed as “A (7.3 ≤ pIC50 < 7.8)”.

As for `COc1ccc(S(=O)(=O)Nc2cccc(-c3cn(C(C)C)c4ncnc(N)c34)c2F)cc1Cl` [cmpd 2, N-[3-(4-Amino-7-isopropyl-7H-pyrrolo[2,3-d]pyrimidin-5-yl)-2-fluoro-phenyl]-3-chloro-4-methoxy-benzenesulfonamide], the pIC50 entry is given as “AA (7.8 ≤ pIC50)”.

For the compound `COc1cc(F)c(S(=O)(=O)Nc2cccc(-c3cn(C4CCN(C)CC4)c4ncnc(N)c34)c2F)cc1Cl` [cmpd 3, N-{3-[4-Amino-7-(1-methyl-piperidin-4-yl)-7H-pyrrolo[2,3-d]pyrimidin-5-yl]-2-fluoro-phenyl}-5-chloro-2-fluoro-4-methoxy-benzenesulfonamide], the pIC50 result is given as “AA (7.8 ≤ pIC50)”.

`COc1ccc(S(=O)(=O)Nc2cccc(-c3cn(C4CCN(C)CC4)c4ncnc(N)c34)c2F)cc1Cl` [cmpd 4, N-{3-[4-Amino-7-(1-methyl-piperidin-4-yl)-7H-pyrrolo[2,3-d]pyrimidin-5-yl]-2-fluoro-phenyl}-3-chloro-4-methoxy-benzenesulfonamide]: the pIC50 entry is “AA (7.8 ≤ pIC50)”.

One may read the IC50 as the concentration that gives 50% inhibition. As to `COc1ccc(S(=O)(=O)Nc2cccc(-c3cn(C4CCN(C5CC5)CC4)c4ncnc(N)c34)c2F)cc1Cl` [cmpd 5, N-{3-[4-Amino-7-(1-cyclopropyl-piperidin-4-yl)-7H-pyrrolo[2,3-d]pyrimidin-5-yl]-2-fluoro-phenyl}-3-chloro-4-methoxy-benzenesulfonamide], the IC50 is 15.8 to 50.1 nM.

Take `COc1ccc(S(=O)(=O)Nc2cccc(-c3cn(C4CCN(C(C)C)CC4)c4ncnc(N)c34)c2F)cc1Cl` [cmpd 6, N-{3-[4-Amino-7-(1-isopropyl-piperidin-4-yl)-7H-pyrrolo[2,3-d]pyrimidin-5-yl]-2-fluoro-phenyl}-3-chloro-4-methoxy-benzenesulfonamide]: the pIC50 result is reported as “AA (7.8 ≤ pIC50)”.

`COc1cc(F)c(S(=O)(=O)Nc2cccc(-c3nn(C)c4ncnc(N)c34)c2F)cc1Cl` [cmpd 9, N-[3-(4-Amino-1-methyl-1H-pyrazolo[3,4-d]pyrimidin-3-yl)-2-fluoro-phenyl]-5-chloro-2-fluoro-4-methoxy-benzenesulfonamide]: the pIC50 entry is on record as “AA (7.8 ≤ pIC50)”.

Turning to `COc1ccc(S(=O)(=O)Nc2cccc(-c3cn(C)c4ncnc(N)c34)c2F)cc1C` [cmpd 12, N-[3-(4-Amino-7-methyl-7H-pyrrolo[2,3-d]pyrimidin-5-yl)-2-fluoro-phenyl]-4-methoxy-3-methyl-benzenesulfonamide], the IC50 was 15.8 to 50.1 nM.

`Cn1cc(-c2cccc(NS(=O)(=O)c3cccc(Cl)c3)c2F)c2c(N)ncnc21` [cmpd 13, N-[3-(4-Amino-7-methyl-7H-pyrrolo[2,3-d]pyrimidin-5-yl)-2-fluoro-phenyl]-3-chloro-benzenesulfonamide]: the pIC50 entry is recorded as “AA (7.8 ≤ pIC50)”.

`COc1ccc(S(=O)(=O)Nc2cccc(-c3cn(C)c4ncnc(N)c34)c2F)cc1` [cmpd 14, N-[3-(4-Amino-7-methyl-7H-pyrrolo[2,3-d]pyrimidin-5-yl)-2-fluoro-phenyl]-4-methoxy-benzenesulfonamide]: the half-inhibitory concentration (IC50) was 50.1 to 158 nM.

As to `Cn1cc(-c2cccc(NS(=O)(=O)c3ccc(C(F)(F)F)cc3)c2F)c2c(N)ncnc21` [cmpd 15, N-[3-(4-Amino-7-methyl-7H-pyrrolo[2,3-d]pyrimidin-5-yl)-2-fluoro-phenyl]-4-trifluoromethyl-benzenesulfonamide], the IC50 was 50.1 to 158 nM.

Consider `COc1ccc(S(=O)(=O)Nc2cccc(-c3cn(C)c4ncnc(N)c34)c2F)cc1OC` [cmpd 17, N-[3-(4-Amino-7-methyl-7H-pyrrolo[2,3-d]pyrimidin-5-yl)-2-fluoro-phenyl]-3,4-dimethm-benzenesulfonamide], for which the IC50 was 50.1 to 158 nM.

In the case of `CN1CCOc2cc(S(=O)(=O)Nc3cccc(-c4cn(C)c5ncnc(N)c45)c3F)ccc21` [cmpd 18, 4-Methyl-3,4-dihydro-2H-benzo[1,4]oxazine-7-sulfonic acid [3-(4-amino-7-methyl-7H-pyrrolo[2,3-d]pyrimidin-5-yl)-2-fluoro-phenyl]-amide], the IC50 is 50.1 to 158 nM.

In the case of `Cn1cc(-c2cccc(NS(=O)(=O)c3ccc([N+](=O)[O-])cc3)c2F)c2c(N)ncnc21` [cmpd 19, N-[3-(4-Amino-7-methyl-7H-pyrrolo[2,3-d]pyrimidin-5-yl)-2-fluoro-phenyl]-4-nitro-benzenesulfonamide], the IC50 was 15.8 to 50.1 nM.

On to `Cn1cc(-c2cccc(NS(=O)(=O)c3ccc4ccccc4c3)c2F)c2c(N)ncnc21` [cmpd 20, Naphthalene-2-sulfonic acid [3-(4-amino-7-methyl-7H-pyrrolo[2,3-d]pyrimidin-5-yl)-2-fluoro-phenyl]-amide], for which the pIC50 result is “C (pIC50 < 6.8)”.

On to `Cn1cc(-c2cccc(NS(=O)(=O)c3cc(F)ccc3F)c2F)c2c(N)ncnc21` [cmpd 21, N-[3-(4-Amino-7-methyl-7H-pyrrolo[2,3-d]pyrimidin-5-yl)-2-fluoro-phenyl]-2,5-difluoro-benzenesulfonamide], for which the pIC50 result is on record as “C (pIC50 < 6.8)”.

For `Cn1cc(-c2cccc(NS(=O)(=O)c3ccc(Br)cc3F)c2F)c2c(N)ncnc21` [cmpd 22, N-[3-(4-Amino-7-methyl-7H-pyrrolo[2,3-d]pyrimidin-5-yl)-2-fluoro-phenyl]-4-bromo-2-fluoro-benzenesulfonamide], the IC50 was 15.8 to 50.1 nM.

As for `Cn1cc(-c2cccc(NS(=O)(=O)c3c(F)cccc3F)c2F)c2c(N)ncnc21` [cmpd 23, N-[3-(4-Amino-7-methyl-7H-pyrrolo[2,3-d]pyrimidin-5-yl)-2-fluoro-phenyl]-2,6-difluoro-benzenesulfonamide], the IC50 is 50.1 to 158 nM.

Regarding `COc1cc(F)c(S(=O)(=O)Nc2cccc(-c3cn(C)c4ncnc(N)c34)c2F)cc1Cl` [cmpd 24, N-[3-(4-Amino-7-methyl-7H-pyrrolo[2,3-d]pyrimidin-5-yl)-2-fluoro-phenyl]-5-chloro-2-fluoro-4-methoxy-benzenesulfonamide], the pIC50 result is “AA (7.8 ≤ pIC50)”.

In the case of `Cn1cc(-c2cccc(NS(=O)(=O)c3ccc(Cl)c(Cl)c3)c2F)c2c(N)ncnc21` [cmpd 25, N-[3-(4-Amino-7-methyl-7H-pyrrolo[2,3-d]pyrimidin-5-yl)-2-fluoro-phenyl]-3,4-dichloro-benzenesulfonamide], the 50% inhibitory concentration (IC50) was 15.8 to 50.1 nM.

In the case of `Cn1cc(-c2cccc(NS(=O)(=O)c3cc(Cl)cc(Cl)c3)c2F)c2c(N)ncnc21` [cmpd 26, N-[2-(4-Amino-7-methyl-7H-pyrrolo[2,3-d]pyrimidin-5-yl)-2-fluoro-phenyl]-3,5-dichloro-benzenesulfonamide], the IC50 is 15.8 to 50.1 nM.

`Cn1cc(-c2cccc(NS(=O)(=O)c3ccc4c(c3)CCO4)c2F)c2c(N)ncnc21` [cmpd 27, 2,3-Dihydro-benzofuran-5-sulfonic acid [3-(4-amino-7-methyl-7H-pyrrolo[2,3-d]pyrimidin-5-yl)-2-fluoro-phenyl]-amide]: the pIC50 result was “AA (7.8 ≤ pIC50)”.

For the compound `CCOc1ccc(S(=O)(=O)Nc2cccc(-c3cn(C)c4ncnc(N)c34)c2F)cc1C` [cmpd 28, N-[3-(4-Amino-7-methyl-7H-pyrrolo[2,3-d]pyrimidin-5-yl)-2-fluoro-phenyl]-4-ethoxy-3-methyl-benzenesulfonamide], the half-maximal inhibitory concentration (IC50) is 15.8 to 50.1 nM.

Regarding `COc1c(C)cc(S(=O)(=O)Nc2cccc(-c3cn(C)c4ncnc(N)c34)c2F)cc1C` [cmpd 29, N-[3-(4-Amino-7-methyl-7H-pyrrolo[2,3-d]pyrimidin-5-yl)-2-fluoro-phenyl]-4-methoxy-3,5-dimethyl-benzenesulfonamide], the IC50 is 15.8 to 50.1 nM.

In the case of `Cc1cc(S(=O)(=O)Nc2cccc(-c3cn(C)c4ncnc(N)c34)c2F)ccc1OC(C)C` [cmpd 30, N-[3-(4-Amino-7-methyl-7H-pyrrolo[2,3-d]pyrimidin-5-yl)-2-fluoro-phenyl]-4-isopropoxy-3-methyl-benzenesulfonamide], the pIC50 entry is on record as “C (pIC50 < 6.8)”.

Turning to `Cn1cc(-c2cccc(NS(=O)(=O)c3cc(F)c(F)c(F)c3)c2F)c2c(N)ncnc21` [cmpd 32, N-[3-(4-Amino-7-methyl-7H-pyrrolo[2,3-d]pyrimidin-5-yl)-2-fluoro-phenyl]-3,4,5-trifluoro-benzenesulfonamide], the 50% inhibitory concentration (IC50) is 15.8 to 50.1 nM.

In the case of `Cn1cc(-c2cccc(NS(=O)(=O)c3cnc(Cl)c(Br)c3)c2F)c2c(N)ncnc21` [cmpd 33, 5-Bromo-6-chloro-pyridine-3-sulfonic acid [3-(4-amino-7-methyl-7H-pyrrolo[2,3-d]pyrimidin-5-yl)-2-fluoro-phenyl]-amide], the IC50 is 15.8 to 50.1 nM.

With `COc1ccc(S(=O)(=O)Nc2cccc(-c3nn(C)c4ncnc(N)c34)c2F)cc1C` [cmpd 34, N-[3-(4-Amino-1-methyl-1H-pyrazolo[3,4-d]pyrimidin-3-yl)-2-fluoro-phenyl]-4-methoxy-3-methyl-benzenesulfonamide], the IC50 was 15.8 to 50.1 nM.
